Test results published in PMC4669759 (Cell Death & Disease, 2015).

Columns and labels:
Assay type in all cases: cell-based
BCL-XL–BAD complexes = target: T1, BCL-XL–BAD complexes (Homo sapiens, UniProt Q07817); test: Live cell redistribution assay, eGFP-BCL-XL and mCherry-BAD, T-REx-293 cells; conditions: 10 μM, 300 min
T1 construct: expressed in transfected cells; host or cells: T-REx-293, bicistronic expression module integrated at a single genomic site
From the text: To further rule out potential artifacts associated with lysate detergents that can influence interactions between BCL-2 family proteins,[47] we employed a recently described real-time imaging method to assess the effects on BCL-2 family complexes in live cells.[48] Briefly, interacting pairs of BCL-2 family proteins are expressed as fluorescent fusion proteins at stoichiometric levels from a bicistronic expression module integrated into a single site of the genome in T-REx-293 cells. […]
Figure 3 A-1210477 inhibits MCL-1-BIM complexes in live cells. […] The decrease in amount of mCherry-BH3 protein localized to the mitochondria was quantified as a function of time as described in the Materials and Methods, normalized to DMSO control, and fitted to a single exponential decay. Each data point represents the mean change in intensity calculated from 10 fields of view, with error bars indicating the S.E.M. (b) T-REx-293 cells stably expressing eGFP-MCL-1(3B) and mCherry-BIMS(2A)ΔC were treated with 50 μM ABT-737 or increasing concentrations (1–25 μM) A-1210477 for 100 min. The decrease in amount of mCherry-BIMS(2A)ΔC localized to the mitochondria was quantified as in panel (a). (c) Representative fluorescence microscopic images of T-REx-293 cells stably expressing eGFP-BCL-2 family and interacting mCherry-BH3-only proteins before and after 300 min of treatment with 10 μM A-1210477 or (d) ABT-737. […]

MCL-1–BIM complexes = target: T2, MCL-1–BIM complexes (Homo sapiens, UniProt Q07820); test: Co-immunoprecipitation–electrochemiluminescent ELISA of MCL-1–BIM complexes in H929 cells; conditions: 4 h
T2 construct: endogenous in cells; host or cells: H929
T2 sequence (Q07820 whole entry, one chain of several): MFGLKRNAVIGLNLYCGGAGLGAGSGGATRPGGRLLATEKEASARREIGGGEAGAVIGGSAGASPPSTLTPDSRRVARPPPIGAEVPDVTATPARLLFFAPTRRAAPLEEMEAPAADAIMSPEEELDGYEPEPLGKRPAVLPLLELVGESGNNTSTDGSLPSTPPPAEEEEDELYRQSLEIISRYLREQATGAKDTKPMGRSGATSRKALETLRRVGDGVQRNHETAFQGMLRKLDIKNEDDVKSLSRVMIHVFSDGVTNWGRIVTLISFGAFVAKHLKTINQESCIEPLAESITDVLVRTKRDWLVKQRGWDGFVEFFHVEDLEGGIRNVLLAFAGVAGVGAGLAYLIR
Experimental: (a) H929 cells were treated with increasing concentrations of A-1210477 for 4 h. […] All data represent the mean of triplicate experiments, with error bars indicating the S.D. (b) Quantitative measurement of protein–protein interactions using a luciferase-based mammalian two-hybrid assay. […] All data represent the means of triplicate experiments, with error bars indicating the S.Ds.
After compound treatments, cells were lysed in buffer containing 1% CHAPS, 10 mM HEPES, and 150 mM NaCl with protease inhibitor cocktail (Roche, Indianapolis, IN, USA). In all, 100 μg of cell lysate was added to each well of a Meso Scale Discovery (Rockville, MD, USA) 96-well plate precoated with biotinylated anti-MCL-1 antibody (clone RC13) from Thermo Fisher Scientific. MCL-1-BIM complexes were detected with rabbit anti-BIM antibody (clone Y36) from Abcam, followed by Sulfo-tagged anti-rabbit antibody (Meso Scale Discovery; cat no. R32AB-5) and Meso Scale Discovery reading buffer with surfactant (cat. no. R92TC-2) according to the manufacturer's recommendations. Each step was followed by washing three times with PBS-T (PBS+0.1% Tween-20).

EJ-1 cells = test: Navitoclax / A-1210477 combination cell viability, EJ-1 cells; conditions: EJ-1, 48 h
Experimental: Figure 6 A-1210477 synergizes with navitoclax to kill hematological and solid tumor cell lines. BxPC-3, EJ-1, H23, and OPM-2 cells were treated with increasing concentrations of navitoclax in the presence or absence of increasing concentrations of A-1210477 for 48 h before assessing cell viability. All data points represent the means of triplicate experiments, with error bars indicating the S.E.M. TEXT PRINTED IN THE PICTURE: A-1210477 + navitoclax: Bliss sum (BxPC-3): 716; Bliss sum (EJ-1): 464; Bliss sum (H23): 76; Bliss sum (OPM-2): 946 DOUBTS OF THE COPYIST ABOUT THIS PICTURE: The Bliss sums apply to the combination of A-1210477 and navitoclax. The picture prints the two names separately (legend heading and axis title), not as one joined label.
Adherent cell lines were seeded at 50 000 cells per well in 96-well plates and treated for 48 h with compounds diluted in half-log steps starting at 30 μM and ending at 0.001 μM. Multiple myeloma cell lines were seeded at 15 000–20 000 cells per well and treated similarly. Effects on proliferation and viability were determined using CellTiter-Glo reagent from Promega (Madison, WI, USA) according to the manufacturer's instructions. IC50 values were determined by non-linear regression analysis of the concentration response data.

T1 sequence (Q07817 whole entry, one chain of several): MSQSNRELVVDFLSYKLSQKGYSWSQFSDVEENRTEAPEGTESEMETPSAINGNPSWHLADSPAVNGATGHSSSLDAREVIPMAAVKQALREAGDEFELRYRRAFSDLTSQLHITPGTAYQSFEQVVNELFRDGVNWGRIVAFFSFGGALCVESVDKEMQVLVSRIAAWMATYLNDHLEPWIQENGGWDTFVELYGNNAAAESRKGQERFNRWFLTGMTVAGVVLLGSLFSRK

## Cc1nn(C)c(COc2ccc(N3CCN(S(=O)(=O)N(C)C)CC3)cc2)c1-c1cccc2c(CCCOc3cccc4ccccc34)c(C(=O)O)n(CCN3CCOCC3)c12 [A-1210477]
BCL-XL–BAD complexes
  redistribution of mCherry-BAD associated with BCL-XL: no effect
MCL-1–BIM complexes
  IC50, reduction of BIM co-immunoprecipitated with MCL-1: low-μM range
EJ-1 cells
  potentiation of navitoclax: substantially shifted the dose–response curve of navitoclax
